This note sets out measurements from PubChem BioAssay (NCI).

Holding throughout (test): inhibition of tumour cell growth, NCI panel, 48 h
Assay [1] deals with KM20L2 colon.
Assay [2] concerns M19-MEL melanoma.
Assay [3] relates to XF 498 CNS.
Assay [4] concerns DMS 114 small cell lung.
The subject of assay [5] is DLD-1 colon.
For assay [6], the system named is SNB-78 CNS.
Assay [7] deals with RXF-631 renal.
The test system of assay [8] is HOP-18 NSCLC.
Assay [9] concerns DMS 273 small cell lung.
The subject of assay [10] is MDA-N.

Values joined by “and” are separate entries in the source; they are usually repeats but may differ in a detail not shown here. Identical values can stand only once.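 Results reflect a 48-hour exposure of cells in 96-well plates to compound at five concentrations. Here, GI50 denotes the concentration required for 50% inhibition of growth. Definition used: TGI = concentration required for complete inhibition of growth.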 Active and inactive are the calls of the source. No stated cut-off is given here; in the data, active means GI50 below about 0.43 µM; inactive means the rest.

Consider `CC1(C)OC2OC(COC(=O)C(c3ccccc3)c3ccccc3)C3OC(C)(C)OC3C2O1` (stereo unspecified), for which the TGI in assay [1] is > 100 µM; in assay [2], > 100 µM; in assay [3], 99.7 µM; in assay [4], > 100 µM; in [5], > 100 µM.

For the compound `Nc1c(C(=O)Nc2ccccc2O)[n+]([O-])c2ccccc2[n+]1[O-]`, the TGI in assay [6] was > 100 µM; in assay [1] it was > 100 µM; in assay [2], 27.7 µM; in assay [7] it was > 100 µM; in [8] it was > 100 µM; in assay [9] it was > 100 µM. Moreover, the TGI was 63.5 µM in assay [4] and > 100 µM in assay [5].

Take `COc1cc2c(cc1OC)C(SC)C(=O)N(Cc1cccc(OC)c1OC)CC2` (stereo unspecified): the TGI in assay [6] was 5.19 µM; in assay [1], > 100 µM; in assay [2] it was 22.3 µM; in [8], > 100 µM; in assay [9] it was 12.2 µM; in assay [10] it was 1.53 µM. Besides, the TGI was 5.49 µM in [4] and > 100 µM in assay [5].

`CC(C)=CC(=O)CC(=O)C(=O)NCCNC(=O)C(=O)CC(=O)C=C(C)C`: the TGI in assay [6], in assay [1], in [2], in assay [3], in assay [8] and in [9] was > 50 µM each time. In addition, the TGI in assay [4] and in assay [5] was > 50 µM throughout.

With `O=C(Nc1ccc(Cl)c(Cl)c1)C1C(=O)N(c2ccc(Cl)c(Cl)c2)C(=O)/C1=N\O` (stereo unspecified), the TGI in assay [6] is > 100 µM; in [1] it was > 100 µM; in assay [2] it was > 100 µM; in assay [8], > 100 µM; in assay [9] it was > 100 µM; in assay [4], 83.7 µM. Also, the TGI in assay [5] was > 100 µM.

Regarding `C1CCN2CC3CONC3C2C1` (stereo unspecified), the TGI in assay [6], in assay [1], in assay [2], in [3], in assay [9] and in assay [4] was > 100 µM in each case. Further, the TGI in [5] was > 100 µM.

Consider `CCOc1ccc(/C=C2/C(=O)N=C(N)N=C2N)cc1OCC`, for which the TGI in assay [6], in [1], in assay [2], in assay [7], in assay [3] and in [8] was > 100 µM in each case. The TGI in assay [9] and in assay [4] was > 100 µM each time.

With `C=CC(C)(O)CCC1C(=C)C(O)CC2C(C)(C)CCCC12C` (stereo unspecified), the TGI in assay [10] came to 34.6 µM.

In the case of `Nc1c(-c2nc3ccccc3s2)[n+]([O-])c2ccccc2[n+]1[O-]`, the TGI in assay [6] is > 100 µM; in [1] it was > 100 µM; in [2], 84.2 µM; in assay [8], 86.2 µM; in [4], > 100 µM; in [5], > 100 µM.

Regarding `CN(C)CCNC(=O)c1cccc2cc3ccc4ccccc4c3nc12`, the TGI in assay [6] was determined as 12.5 µM; in assay [1], 0.988 µM; in assay [2], 0.235 µM; in [3], 0.237 µM; in [8] it was 0.665 µM; in assay [9], 0.163 µM. The compound further yielded a TGI in [5] of 0.817 µM.

As for `CC1=C(C(=O)CC(=O)C(=O)Nc2ccccc2C)Sc2ccccc2N1`, the TGI was > 100 µM in assay [6]; > 100 µM in assay [1]; > 100 µM in [2]; > 100 µM in assay [8]; > 100 µM in [9]; > 67.9 µM in assay [5].

With `c1ccc2c(c1)[O][Sn][O]2`, the GI50 is > 150 µg/mL in assay [6], 10.4 µg/mL in [9] and 8.87 µg/mL in [4]. For the same compound, the TGI in assay [6], in assay [9] and in [4] was > 150 µg/mL each time. Moreover, the outcome in assay [1], in assay [7] and in [8] was inactive.

`CCOC(=O)COc1cccc2occc(=O)c12`: the TGI in assay [6], in assay [1], in assay [2], in assay [3], in [9] and in assay [4] was > 100 µM each time. Also, in [5], the TGI is > 100 µM.

As for `N=C(N)c1ccc(OCCCCCOc2ccc(C(=N)N)cc2)cc1`, the TGI in [10] was 26.5 µM and 36 µM.

Turning to `CCC1=C(c2ccc(OC)cc2)CC[C@]2(CCNC2=O)[C@@H]1C`, in assay [10], the TGI amounted to 58.3 µM.

As for `Cn1cc(NC(=O)c2cc(NC(=O)CCCCCCCC(=O)Nc3cc(C(=O)Nc4cc(C(=O)NCCC(=N)N)n(C)c4)n(C)c3)cn2C)cc1C(=O)NCCC(=N)N`, the TGI was 93.5 µM in [6]; > 100 µM in assay [1]; 16.7 µM in assay [2]; > 100 µM in assay [7]; 56.1 µM in assay [3]; > 100 µM in [8]. Besides, the TGI was 25 µM in [9], 11.9 µM in assay [4] and > 100 µM in [5].

Take `COc1ccc2c3c(c(C(=O)O)oc13)C(CCC(=O)O)CC2` (stereo unspecified): the TGI in assay [6], in [1], in assay [3], in assay [8], in [9] and in assay [4] was > 100 µM in each case. Further, the TGI in assay [5] is > 100 µM.

Take `NNC(=O)N/N=C1\CNC(=O)C(=O)C1c1nc2ccccc2s1` (stereo unspecified): the TGI in assay [6], in assay [1], in assay [2], in [3], in [9] and in [4] was > 100 µM each time. Moreover, in [5], the TGI is > 100 µM.

Regarding `O=c1c2cccc3cccc(c4n1CCCN=4)c32`, the TGI in assay [6], in assay [1], in assay [2], in assay [7], in assay [3] and in assay [8] was > 100 µM each time. In addition, the TGI in [9], in [4] and in assay [5] was > 100 µM throughout.

For the compound `O=[N+]([O-])c1ccc(/C=C\c2ccc3c(c2)OCO3)c([N+](=O)[O-])c1`, the TGI in [10] was determined as 22.4 µM.

For `CC(C)(C)c1cc(C(OCCl)(C(F)(F)F)C(F)(F)F)c2c(c1)C(C(F)(F)F)(C(F)(F)F)OC21c2ccccc2C(=O)c2ccccc21`, the TGI in [6], in assay [1], in assay [2], in assay [7], in [3] and in assay [8] was > 100 µM each time. In addition, the TGI in [9], in assay [4] and in assay [5] was > 100 µM each time.

For the compound `Cc1c(C)c2ccc(OC(C)C(=O)O)cc2oc1=O` (stereo unspecified), the TGI in assay [6] was > 100 µM; in assay [1] it was > 100 µM; in assay [2], > 100 µM; in [7] it was > 100 µM; in [3] it was 99 µM; in assay [8], > 100 µM. The TGI in assay [4] and in [5] was > 100 µM throughout.

With `Cc1csc(CCC(N)C(=O)O)n1` (stereo unspecified), the TGI in assay [6], in assay [2], in assay [8], in assay [9] and in assay [5] was > 100 µM throughout.

In the case of `O=S(=O)(Cc1ccccc1)SCc1ccccc1`, the TGI came to 48.2 µM in assay [6]; 40.1 µM in [1]; 53.9 µM in assay [2]; 36.4 µM in [7]; 84.3 µM in assay [8]; 98.2 µM in [9]. The TGI stood at 32 µM in [4] and 21.9 µM in [5].

Turning to `NCC(Cc1ccccc1)P(=O)(O)O` (stereo unspecified), the TGI in assay [10] was > 100 µM.

Turning to `O=c1[nH]c(=O)n(C2CC(O)C(O)C(CO)O2)cc1F` (stereo unspecified), the TGI in assay [6], in assay [1], in [2], in assay [7], in assay [3] and in [8] was > 100 µM in each case. In addition, the TGI in assay [4] and in assay [5] was > 100 µM throughout.

In the case of `O=C1c2ccoc2C(=O)c2oc(=O)ccc21`, the TGI in assay [6] is 42.8 µM; in assay [1] it was > 65.4 µM; in assay [2], 2.9 µM; in assay [3] it was 40 µM; in [8] it was 36 µM; in assay [9], 31.6 µM. Further, the values for the TGI in assay [4] and in assay [5] were 4.42 µM and 36.4 µM, respectively.

Consider `Nc1nc(-c2ccccc2)cc(-c2cc(Cl)ccc2O)n1`, for which the TGI in [6], in [1], in [7], in [8], in assay [9] and in assay [4] was > 100 µM throughout. Further, the TGI in assay [5] was > 100 µM.

As to `CCOC(=O)n1c2ccccc2c(=O)n1CCO`, the TGI in [10] is > 100 µM.

As to `NC(=O)C(=O)Cc1nc2ccccc2s1`, the TGI in assay [6], in assay [1], in [2], in [3], in assay [8] and in [4] was > 100 µM each time.

`CC(=O)c1c(O)c2c([nH]c1=O)CCCC2`: the TGI in [6] is > 100 µM; in assay [1], > 100 µM; in assay [2] it was 44.3 µM; in assay [7], 59.2 µM; in assay [3], > 100 µM; in assay [8] it was > 100 µM. Further, the results for the TGI in assay [9], in assay [4] and in assay [5] were 70.5 µM, > 100 µM and > 100 µM, respectively.

Take `Cc1cc2c(cc1C)[n+](=O)c(C(=O)/C=C/c1ccccc1[N+](=O)[O-])c(C)n2[O-]`: the TGI in assay [6] was > 80.9 µM; in assay [1], > 100 µM; in assay [2], > 100 µM; in assay [3], 37.7 µM; in assay [8], > 93.6 µM; in assay [9], > 94.5 µM. The TGI in assay [10] was > 100 µM; in assay [4], 49.1 µM; in assay [5] it was > 100 µM.

Take `O=C(O)C1=C(C(=O)O)Oc2ccccc2O1`: the TGI in assay [6], in assay [1], in assay [2], in assay [3], in assay [8] and in assay [9] was > 100 µM throughout. In addition, the TGI in [4] and in assay [5] was > 100 µM in each case.

As for `O=C(CCC(=O)C1Cc2ccccc2C1=O)Nc1cccc(C(F)(F)F)c1` (stereo unspecified), the TGI in [6], in assay [1], in assay [2], in assay [7], in [8] and in [9] was > 100 µM in each case. In assay [5], the TGI is > 100 µM.
